This passage reports Activity results from ChEMBL document CHEMBL3046856, “Synthesis and fungicidal activity of novel pimprinine analogues” (2012).

Type in all cases: functional
One experiment has as its system Uromyces viciae-fabae. The experiment can be described thus: Fungicidal activity against Uromyces viciae-fabae infected compound pre-treated bean leaf pieces assessed as control of disease or pathogen at 100 ppm measured after 5 to 14 days by leaf-piece assay.
Experiment [1] relates to Botrytis cinerea. The experiment can be described thus: Fungicidal activity against Botryotinia fuckeliana grown on compound supplemented artificial media assessed as control of disease or pathogen at 20 ppm measured after 5 to 14 days by artificial media assay.
The nature of experiment [2]: Fungicidal activity against Zymoseptoria tritici infected on compound pre-treated wheat leaf pieces assessed as control of disease or pathogen at 100 ppm measured after 5 to 14 days by leaf-piece assay.
Experiment [3] relates to Alternaria solani. The experiment is described as follows: Fungicidal activity against Alternaria solani grown on compound supplemented artificial media assessed as control of disease or pathogen at 2 ppm measured after 5 to 14 days by artificial media assay.
For experiment [4], the system named is Pythium dissimile. The experiment is described as follows: Fungicidal activity against Pythium dissimile grown on compound supplemented artificial media assessed as control of disease or pathogen at 2 ppm measured after 5 to 14 days by artificial media assay.
Experiment [5] relates to Pythium dissimile. The experiment can be described thus: Fungicidal activity against Pythium dissimile grown on compound supplemented artificial media assessed as control of disease or pathogen at 20 ppm measured after 5 to 14 days by artificial media assay.
Experiment [6] relates to Botrytis cinerea. The experiment is described as follows: Fungicidal activity against Botryotinia fuckeliana grown on compound supplemented artificial media assessed as control of disease or pathogen at 2 ppm measured after 5 to 14 days by artificial media assay.
In experiment [7] the test system is Alternaria solani. The experiment is described as follows: Fungicidal activity against Alternaria solani grown on compound supplemented artificial media assessed as control of disease or pathogen at 20 ppm measured after 5 to 14 days by artificial media assay.

Consider `Brc1ncoc1-c1cn(CC2CC2)c2ccccc12`, for which the Activity in the experiment on Uromyces viciae-fabae is on record as 0%; in the experiment on Botrytis cinerea [1] it was 0%; in experiment [2] it was 0%; with Alternaria solani [3] it was 0%; in the experiment with Pythium dissimile [4], 0%; in the experiment with Pythium dissimile [5], 55%. The Activity with Botrytis cinerea [6] and in the experiment with Alternaria solani [7] was 0% each time.

Consider `Brc1ncoc1-c1c[nH]c2ccccc12`, for which the Activity in the experiment on Uromyces viciae-fabae is recorded as 77%; in the experiment on Botrytis cinerea [1], 99%; in experiment [2], 0%; in the experiment on Alternaria solani [3], 0%; with Pythium dissimile [4], 0%; in the experiment on Pythium dissimile [5] it was 99%. The Activity in the experiment on Botrytis cinerea [6] was determined as 0%; with Alternaria solani [7], 99%.

With `Clc1ncoc1-c1c[nH]c2ccccc12` [Streptochlorin], the Activity with Uromyces viciae-fabae is listed as 55%; in the experiment on Botrytis cinerea [1], 99%; in experiment [2], 36%; in the experiment on Alternaria solani [3], 99%; with Pythium dissimile [4] it was 0%; in the experiment with Pythium dissimile [5] it was 99%. In addition, the Activity in the experiment on Botrytis cinerea [6] was found to be 0%; in the experiment with Alternaria solani [7], 99%.

On to `c1ccc2c(-c3cnco3)c[nH]c2c1`, for which the Activity in the experiment with Uromyces viciae-fabae was 0%; in the experiment with Botrytis cinerea [1], 0%; in experiment [2], 0%; in the experiment on Alternaria solani [3], 0%; in the experiment on Pythium dissimile [4], 0%; with Pythium dissimile [5] it was 99%. For the same compound, the figures for the Activity with Botrytis cinerea [6] and in the experiment on Alternaria solani [7] were 0% and 77%, respectively.

Regarding `COCC(=O)n1cc(-c2ocnc2Cl)c2ccccc21`, the Activity amounted to 55% with Uromyces viciae-fabae; 77% in the experiment with Botrytis cinerea [1]; 0% in experiment [2]; 0% with Alternaria solani [3]; 0% in the experiment on Pythium dissimile [4]; 55% in the experiment on Pythium dissimile [5]. For the same compound, the figures for the Activity with Botrytis cinerea [6] and with Alternaria solani [7] were 0% and 99%, respectively.

On to `O=C(CCl)n1cc(-c2ocnc2Cl)c2ccccc21`, for which the Activity in the experiment with Uromyces viciae-fabae is 49%; with Botrytis cinerea [1] it was 99%; in experiment [2], 0%; in the experiment on Alternaria solani [3], 0%; with Pythium dissimile [4], 0%; in the experiment on Pythium dissimile [5], 99%. The Activity worked out at 0% in the experiment with Botrytis cinerea [6] and 55% with Alternaria solani [7].

In the case of `CCn1cc(-c2ocnc2Cl)c2ccccc21`, the Activity is 99% in the experiment on Uromyces viciae-fabae; 0% in the experiment on Botrytis cinerea [1]; 0% in experiment [2]; 0% in the experiment on Alternaria solani [3]; 0% in the experiment on Pythium dissimile [4]; 55% in the experiment with Pythium dissimile [5]. For the same compound, the Activity in the experiment with Botrytis cinerea [6] and in the experiment on Alternaria solani [7] was 0% each time.

As to `CCn1cc(-c2ocnc2Br)c2ccccc21`, the Activity in the experiment on Uromyces viciae-fabae is on record as 99%; with Botrytis cinerea [1], 0%; in experiment [2] it was 0%; in the experiment with Alternaria solani [3], 0%; in the experiment on Pythium dissimile [4], 49%; in the experiment on Pythium dissimile [5] it was 55%. Moreover, the figures for the Activity with Botrytis cinerea [6] and in the experiment on Alternaria solani [7] were 0% and 55%, respectively.
